Data: patent publication US5057614A, “Substituted pyrroles” (Hoffmann-La Roche Inc., priority 1988, dated 1991)

Molecular target: protein kinase C
Assay: inhibition of protein kinase C in vitro (protein kinase-induced incorporation of 32P from [γ-32P]ATP into histone)
Type: biochemical
Conditions: concentration reducing by 50% the protein kinase-induced incorporation of 32P from [γ-32P]ATP into histone
From the text: The IC50 figures in the following Table, represent that concentration of test compound which reduces by 50% the protein kinase-induced incorporation of ^32 P from [γ-^32 P]ATP into histone.

SMILES	IC50 [nM]
Cc1cccc(C2=C(c3cn(C)c4ccccc34)C(=O)NC2=O)c1 [3-(1-methyl-3-indolyl)-4-(3-methylphenyl)-1H-pyrrole-2,5-dione]	1000
Cn1cc(C2=C(c3cn(CCCNC(N)=N[N+](=O)[O-])c4ccccc34)C(=O)NC2=O)c2ccccc21 [3-(1-methyl-3-indolyl)-4-[1-[3-(2-nitroguanidino)propyl]-3-indolyl]-1H-pyrrole-2,5-dione]	25
Cn1cc(C2=C(c3cn(C)c4ccc(N)cc34)C(=O)NC2=O)c2ccccc21 [3-(5-amino-1-methyl-3-indolyl)-4-(1-methyl-3-indolyl)-1H-pyrrole-2,5-dione]	600
Cn1cc(C2=C(c3cn(CCCN=C=S)c4ccccc34)C(=O)NC2=O)c2ccccc21 [3-[1-(3-isothiocyanatopropyl)-3-indolyl]-4-(1-methyl-3-indolyl)-1H-pyrrole-2,5-dione]	8

Next, values leading:

IC50 [nM]	SMILES
500	Cn1cc(C2=C(c3cn(CCC(N)=O)c4ccccc34)C(=O)NC2=O)c2ccccc21 [3-[1-(2-carbamoylethyl)-3-indolyl]-4-(1-methyl-3-indolyl)-1H-pyrrole-2,5-dione]
10	Cn1cc(C2=C(c3cn(CCCSC(=N)N)c4ccccc34)C(=O)NC2=O)c2ccccc21 [3-[1-[3-(amidinothio)propyl]-3-indolyl]-4-(1-methyl-3-indolyl)-1H-pyrrole-2,5-dione]
